From US10906909B2, “Treatment of cognitive and mood symptoms in neurodegenerative and neuropsychiatric disorders with ALPHA5-containing GABAA receptor agonists” (UWM Research Foundation, Inc., priority 2016, dated 2021)
Entries after “also recorded” stand apart in the source; their conditions may differ.

Assays:
[1] = test system: Female Swiss Webster mice; experiment: Rotarod sensorimotor / locomotor coordination; assay type: in vivo, mouse; conditions: 40 mg/kg oral gavage; 15 rpm, 3 min; 10, 30, 60 min after dosing
Protocol: Female Swiss Webster mice (10 weeks of age) from Charles River Laboratory, WIL, MA were used for the experiments. The animals were housed under specific pathogen-free conditions, under standard conditions of humidity, temperature and a controlled 12 h light and dark cycle and had free access to food and water. The sensorimotor rotarod test was carried out 10, 30 and 60 minutes after the injection. Mice were tested on a rotarod at 15 rpm for maximum 3 min and the time of fall was recorded. Falling before the 3 minutes period of testing assesses of locomotor coordination impairment induced by the compound.
Mice (N=10/group) received a single administration via oral gavage of test compound (40 mg/kg), diazepam (5 mg/kg), or vehicle (2% polyethylene glycol, 2.5% hydroxypropylmethyl cellulose solution).

[2] = Pharmacokinetics in mice (plasma, liver, brain); conditions: i.p. dosing at 3 mg/kg
[3] = test system: mice subjected to chronic restraint stress (CRS); experiment: Y-maze alternation task, chronic restraint stress (CRS) mice; assay type: in vivo, mouse; conditions: for effect on CRS-induced working memory deficit (percent alternation rate, Y-maze): 10 mg/kg i.p. 30 min before testing; for Alternation rate (%): Dose 10 mg/kg
Protocol: C57/B16 mice, males and females were ordered from Jackson Laboratories at 8 weeks old and were kept in normal housing conditions (12 h light ON cycle starting at 7 am/water and food ad libitum) for one week. During this week, animals were single housed and handled to reduce the anxiety-like response toward the experimenter. To induce a working memory deficit, mice were subjected to a chronic restraint stress protocol (CRS). They were placed in a 50 ml Falcon® tube, twice a day, for 1 hour during their diurnal cycle. The time of occurrence of the stress was randomized every day to avoid predictability. CRS was not applied on testing days. Y-maze test occurred 15 hours minimum after the last stressor.
Mice were first habituated to the Y-maze apparatus and distal cues during 2 consecutive days over a 10 min free exploration session (one session per day). The next day, animals performed a training session consisting in seven successive trials separated by a 30 s inter-trial interval (ITI); during this training session, mice were familiarized with the experimental procedure (opening and closing of the doors and confinement into the goal arms). For each trial, mice remained in the start-box for a 30 s ITI. Then, the door was opened and the mouse was allowed to enter freely one of the two goal arms; the chosen arm was closed and the choice was recorded. After a 30 s confinement period into the chosen arm, the mouse was removed and brought back to the start-box for a second trial identical to the first one and this procedure was repeated over the series of trials.
The same general procedure used in the training session was implemented 24 h later, except that the ITI was lengthened to 90 s. For this experiment, animals were acutely injected i.p. with vehicle or αPAM, 30 minutes before the beginning of the test. To dissociate memory deficits from an eventual progressive loss of motivation to alternate over the series, an 8th trial was added to the series which was separated from the 7th trial by a shorter ITI (5 s). All animals failing to alternate at the 8th trial were excluded. The mean alternation rate was calculated and was expressed in percentage (number of alternation done by the animal/total number of alternation possible×100)±SEM. The percentage of alternation during the entire task is considered as an index of working memory performance (50% of being a random alternation rate). Factorial ANOVA was applied to the data to reveal differences between groups. If the ANOVA was significant for group effect (p<0.05), Scheffe post-hoc analysis were conducted to identify which groups are different from each other.
(§1) All drugs were diluted in a vehicle solution containing 85% H2O, 14% propylene glycol (Sigma Aldrich) and 1% Tween 80 (Sigma Aldrich). Working solutions were prepared at a concentration of 10 mg/mL and administered i.p. adjusted to the body weight of each animal. Doses used were either 1, 5, 10 or 20 mg/kg. For all Y maze experiments, animals were acutely injected i.p. with vehicle or αPAM, 30 minutes before the beginning of the test.

[4] = Mouse liver microsome stability assay; assay type: in vitro ADME; conditions: 10 μM compound; for half-life at 10 μM: mouse, liver microsomes, read-out: Half-life (min) (MouseLM)
Protocol: (§2) Human and mouse liver microsomes were obtained fom BD Gentest.
(§3) Each evaluation included six independent assays carried out three at a time, on two different days
(§4) 2. For a total volume of Microsomal Assay Mixture (MAM) 390 μL, sufficient for seven time points, combine the following
(§5) 3. Sonicate MAM for 5 min and meanwhile thaw microsomes (20 mg/mL) (BD Gentest, Cat #452156) on ice.
(§6) 4. Aliquot 100 μL of ice cold ISTD into 7 separate 1.5 mL conical vials and label them the time points for 0, 10, 20, 40, 60, 90, and 120 min.
(§7) 5. Arrange the timer. Microsomes (Final concentration of 0.5 mg/mL) should be added to all time points except the zero time point.
(§8) 6. Add 50 μL of the MAM solution to the conical vial labelled as zero time point. Place the remaining MAM solution in the incubator (37° C.) for 5 min and initiate the reaction with addition of microsomes (8.8 μL) and record the time.
(§9) 7. At the end of each time interval remove 50 μL and add 100 μL to ISTD in conical vial, sonicate for 10 sec and spin down at 10,000 rpm for 5 minutes.
(§10) 8. Take 100 μL of supernatant and transfer to Spin-X HPLC filter tubes (Corning Incorporated, Cat #8169) and centrifuge at 13,000 rpm for 5 minutes and take 5 μL from this solution and dilute in 495 μL of LCMS grade methanol (Fischer scientific, CAS #67-56-1) in an 2 mL glass auto sampler vial (Microsolv, Cat #95025-WCV) 9. The samples are analyzed by LCMS-8040. (Shimadzu)
(§11) Calculation: From the peak area, calculate the following
(§12) The compounds are tested for the metabolic stability in the Human and Mouse Liver microsomes at 10 μM concentration.

HEK293 = experiment: Cytotoxicity assay (CellTiter-Glo), HEK293; assay type: cell-based, human; conditions: 48 hours incubation
Protocol: (§13) Human liver hepatocellular carcinoma (HEPG2) and human embryonic kidney 293 (HEK293) cell lines were purchased (ATCC) and cultured in 75 cm2 flasks (CellStar). Cells were grown in DMEM/High Glucose (Hyclone, #SH3024301) media to which non-essential amino acids (Hyclone, #SH30238.01), 10 mM HEPES (Hyclone, #SH302237.01), 5×106 units of penicillin and streptomycin (Hyclone, #SV30010), and 10% of heat inactivated fetal bovine serum (Gibco, #10082147) were added. Cells were harvested using 0.05% Trypsin (Hyclone, #SH3023601), washed with PBS, and dispensed into sterile white, optical bottom 384-well plates (NUNC, #142762). After three hours, small molecule solutions were transferred with a Tecan Freedom EVO liquid handling system equipped with a 100 nL pin tool (V&P Scientific). The controls (E)-10-(bromotriphenylphosphoranyl)decyl 4-(4-(tert-butyl)phenyl)-4-oxobut-2-enoate (400 μM in DMSO, positive control) and DMSO (negative control). The cells were incubated for 48 hours followed by the addition of CellTiter-Glo™, a luminescence-based cell viability assay (Promega, Madison, Wis.). All luminescence readings were performed on a Tecan Infinite M1000 plate reader. The assay was carried out in quadruplet with three independent runs. The data was normalized to the controls and analyzed by nonlinear regression (GraphPad Prism).

[5] = Human liver microsome stability assay; assay type: in vitro ADME; conditions: 10 μM compound; for half-life at 10 μM: human, liver microsomes, read-out: Half-life (min) (HumanLM)
Protocol: as §2, §3, §4, §5, §6, §7, §8, §9, §10, §11, §12

HEPG2 = experiment: Cytotoxicity assay (CellTiter-Glo), HEPG2; assay type: cell-based, human; conditions: 48 hours incubation
Protocol: as §13

C57B1/6 male mice = experiment: Forced swim test (FST); assay type: in vivo, mouse; conditions: 10 mg/kg i.p. 24, 20, 1 hour before testing; vs vehicle
Protocol: C57B1/6 male mice were ordered from Jackson Laboratories at 8 weeks-old and were group housed (4-5 mice/cage) under normal housing conditions (12 h light ON cycle starting at 7 am/water and food ad libitum) for one week. During this week, animals were handled in order to habituate them to the experimenter and to reduce their anxiety-like response during behavioral testing.
as §1, with “20” for “10”, “5 or” for “5,”, “10” for “10 or 20”, “FST” for “Y maze”, “were” for “were acutely”, “αPAM.” for “αPAM, 30 minutes before the beginning of the test.”
Mice were tested in the forced swim test (FST) (measure of despair-like behavior used for the assessment of antidepressant efficacy). Animals were sub-chronically injected three times (24, 20 and 1 hour before testing) as per standard methods in the field for testing potential antidepressant compounds.
One hour after the last injection, mice were placed in an inescapable transparent tank filled with water (25 cm, 25-26° C.), where they are unable to touch the bottom and unable to jump out of the tank. Animal were recorded for a period of 6 minutes and a manual count of the immobile time in the tank was measured for the 2-6 minutes period by an experimenter blinded to the mouse treatment history. Immobility is defined as the minimum amount of movement to stay afloat. Compounds that reduced immobility in the FST are considered to have potential antidepressant actions.

Compound	sensorimotor impairment on rotarod (time of fall) [1]	molar concentration range reached in mouse brain tissue [2]	effect on CRS-induced working memory deficit (percent alternation rate, Y-maze) [3]	% left after 2 hr. (MouseLM) [4]	half-life at 10 μM [4]	HEK293 LD50 (HEK293)	half-life at 10 μM [5]	HEPG2 LD50 (HEPG2)	Alternation rate (%) [3]	% left after 2 hr. (Human LM) [5]	time spent immobile in the FST (C57B1/6 male mice)	Half-life (min) (MouseLM) [4]	Half-life (min) (HumanLM) [5]
C#Cc1ccc2c(c1)C(c1ccccn1)=N[C@H](C)c1c(-c3nc(C)no3)ncn1-2 [GL-II-33, (R)-5-(8-ethynyl-4-methyl-6-(pyridin-2-yl)-4H-benzo[f]imidazo[1,5-a][1,4]diazepin-3-yl)-3-methyl-1,2,4-oxadiazole]	no sensorimotor impairment	moderate to high submicromolar concentrations	a trend in the reversal of CRS-induced impairment in working memory; also recorded: a trend was detected	82.0 ± 0.3%	500 ± 66 min	>400 µM	2590 ± 1110 min	>400 µM	–	–	–	–	–
Cc1noc(-c2ncn3c2[C@@H](C)N=C(c2ccccn2)c2cc(Br)ccc2-3)n1 [GL-II-54, (R)-5-(8-bromo-4-methyl-6-(pyridin-2-yl)-4H-benzo[f]imidazo[1,5-a][1,4]diazepin-3-yl)-3-methyl-1,2,4-oxadiazole]	no sensorimotor impairment	high submicromolar to low micromolar values	–	–	2330 ± 1110 min	>400 µM	404 ± 61 min	>400 µM	66.66%	76.0 ± 0.2%	significant decrease in immobility time; also recorded: significant antidepressant-like action	–	–
C#Cc1ccc2c(c1)C(c1ccccn1)=N[C@H](C)c1c(C(=O)NC)ncn1-2 [GL-II-31, (R)-8-ethynyl-N,4-dimethyl-6-(pyridin-2-yl)-4H-benzo[f]imidazo[1,5-a][1,4]diazepine-3-carboxamide]	no sensorimotor impairment	moderate to high submicromolar concentrations	–	–	1840 ± 590 min	>400 µM	1870 ± 765 min	>400 µM	56.6%	–	–	–	–
C#Cc1ccc2c(c1)C(c1ccccc1F)=NCc1c(-c3nc(C)no3)ncn1-2 [GL-III-23, 5-(8-ethynyl-6-(2-fluorophenyl)-4H-benzo[f]imidazo[1,5-a][1,4]diazepin-3-yl)-3-methyl-1,2,4-oxadiazole]	–	micromolar concentrations	–	–	1320 ± 316 min	>100 µM	504 ± 77 min	>100 µM	56.6%	82.0 ± 0.3%	–	–	–
C#Cc1ccc2c(c1)C(c1ccccc1F)=N[C@@H](C)c1c(-c3nc(C)no3)ncn1-2 [GL-I-65, (S)-5-(8-ethynyl-6-(2-fluorophenyl)-4-methyl-4H-benzo[f]imidazo[1,5-a][1,4]diazepin-3-yl)-3-methyl-1,2,4-oxadiazole]	no sensorimotor impairment	moderate to high submicromolar concentrations	significant reversal of CRS-induced impairment in working memory; also recorded: increase in alternation rate	81.0 ± 0.4%	–	–	–	–	–	86.4 ± 0.3%	–	443 ± 67 min	866 ± 213 min
